Marks after values point to notes of the source that are not given here.

One experiment deals with GST-tagged SIK1 (Homo sapiens (Human), UniProt P57059). Description: SIK1 inhibition test (ADP-Glo Max Assay). Format: biochemical. Conditions: enzyme 20 nM, AMARA Peptide 200 μM, ATP 1 mM, 2 hours room temperature. The method in brief: (§1)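 ADP formed was detected by luciferase luminescence after a 2 h room-temperature reaction with 1 mM ATP, 5 mM MgCl2 and AMARA peptide at 200 μM (SIK1, SIK2) or 100 μM (SIK3). Final GST-enzyme levels were 20 nM SIK1, 3 nM SIK2 and 100 nM SIK3. IC50 came from 16-point concentration-response data.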
Sequence of GST-tagged SIK1 (P57059 whole entry): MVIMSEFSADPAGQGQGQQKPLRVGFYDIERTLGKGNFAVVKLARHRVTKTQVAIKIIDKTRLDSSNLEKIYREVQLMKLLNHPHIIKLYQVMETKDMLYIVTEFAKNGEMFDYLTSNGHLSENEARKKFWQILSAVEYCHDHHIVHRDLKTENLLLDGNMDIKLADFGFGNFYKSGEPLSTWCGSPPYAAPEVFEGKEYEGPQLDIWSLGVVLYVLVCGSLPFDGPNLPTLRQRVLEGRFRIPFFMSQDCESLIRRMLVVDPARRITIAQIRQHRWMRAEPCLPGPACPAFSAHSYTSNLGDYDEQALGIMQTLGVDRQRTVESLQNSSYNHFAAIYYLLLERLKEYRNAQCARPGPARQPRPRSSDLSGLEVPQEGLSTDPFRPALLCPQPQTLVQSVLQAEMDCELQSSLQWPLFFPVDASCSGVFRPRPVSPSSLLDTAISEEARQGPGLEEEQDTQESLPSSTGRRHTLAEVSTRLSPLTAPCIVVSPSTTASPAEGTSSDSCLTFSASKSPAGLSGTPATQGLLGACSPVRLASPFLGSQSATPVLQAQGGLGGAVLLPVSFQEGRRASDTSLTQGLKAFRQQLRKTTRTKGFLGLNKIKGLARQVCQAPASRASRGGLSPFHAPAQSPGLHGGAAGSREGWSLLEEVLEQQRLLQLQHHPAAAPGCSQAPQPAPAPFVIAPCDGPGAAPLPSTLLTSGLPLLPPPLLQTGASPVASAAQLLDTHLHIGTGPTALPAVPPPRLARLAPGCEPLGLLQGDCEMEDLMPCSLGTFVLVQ

The next experiment deals with GST-tagged SIK2 (Homo sapiens (Human), UniProt Q9H0K1). Description: SIK2 inhibition test (ADP-Glo Max Assay). The format is biochemical. The following applies: enzyme 3 nM, AMARA Peptide 200 μM, ATP 1 mM, 2 hours room temperature. An outline of the steps:
as §1

For another experiment, the target named is GST-tagged SIK3 (Homo sapiens (Human), UniProt Q9Y2K2). Description: SIK3 inhibition test (ADP-Glo Max Assay). Format: biochemical. Conditions: enzyme 100 nM, AMARA Peptide 100 μM, ATP 1 mM, 2 hours room temperature. The method in brief: as §1
Sequence of GST-tagged SIK3 (Q9Y2K2 whole entry): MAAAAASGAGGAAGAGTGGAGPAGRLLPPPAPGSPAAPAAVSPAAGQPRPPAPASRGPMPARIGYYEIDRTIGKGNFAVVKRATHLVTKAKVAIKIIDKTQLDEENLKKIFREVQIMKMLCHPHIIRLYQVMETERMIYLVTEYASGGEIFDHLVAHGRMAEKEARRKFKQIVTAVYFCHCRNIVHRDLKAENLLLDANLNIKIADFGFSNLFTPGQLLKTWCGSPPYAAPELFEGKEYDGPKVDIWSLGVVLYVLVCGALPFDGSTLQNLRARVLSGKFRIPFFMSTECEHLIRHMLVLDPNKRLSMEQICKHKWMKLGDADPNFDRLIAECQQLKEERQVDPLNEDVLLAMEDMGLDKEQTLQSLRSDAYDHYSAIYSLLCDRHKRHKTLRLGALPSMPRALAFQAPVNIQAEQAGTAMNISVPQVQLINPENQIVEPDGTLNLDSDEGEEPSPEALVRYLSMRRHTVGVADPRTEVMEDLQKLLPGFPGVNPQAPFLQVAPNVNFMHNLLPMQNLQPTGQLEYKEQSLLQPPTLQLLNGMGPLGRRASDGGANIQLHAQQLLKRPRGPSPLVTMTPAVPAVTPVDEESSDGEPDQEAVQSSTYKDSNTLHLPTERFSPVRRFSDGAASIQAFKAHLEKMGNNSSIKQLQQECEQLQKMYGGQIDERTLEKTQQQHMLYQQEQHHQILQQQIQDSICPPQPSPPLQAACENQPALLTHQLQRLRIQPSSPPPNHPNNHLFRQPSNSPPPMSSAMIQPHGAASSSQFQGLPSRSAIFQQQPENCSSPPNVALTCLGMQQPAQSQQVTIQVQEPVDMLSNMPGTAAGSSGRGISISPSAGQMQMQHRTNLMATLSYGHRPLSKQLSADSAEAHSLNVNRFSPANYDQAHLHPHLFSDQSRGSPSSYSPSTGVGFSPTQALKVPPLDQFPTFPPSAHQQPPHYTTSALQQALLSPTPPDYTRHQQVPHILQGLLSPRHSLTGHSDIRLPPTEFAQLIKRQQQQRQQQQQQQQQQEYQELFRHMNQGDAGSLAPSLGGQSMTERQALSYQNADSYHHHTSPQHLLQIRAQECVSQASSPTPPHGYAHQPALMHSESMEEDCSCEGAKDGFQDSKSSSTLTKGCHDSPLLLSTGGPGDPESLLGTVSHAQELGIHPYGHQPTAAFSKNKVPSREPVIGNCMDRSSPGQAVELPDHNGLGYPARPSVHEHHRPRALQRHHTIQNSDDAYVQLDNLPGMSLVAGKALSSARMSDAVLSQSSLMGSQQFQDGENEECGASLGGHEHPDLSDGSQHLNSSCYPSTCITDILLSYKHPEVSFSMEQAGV
(In general: In ADP-Glo the light output rises with the ADP produced.)

The subject of experiment [1] is TNF-α production in LPS-stimulated human monocytes. The experiment is described as follows: TNF-α production inhibition test in LPS-stimulated human monocytes. Format: cell-based. Conditions: Monocyte, LPS 100 ng/mL, 4 hours. On the procedure: (§2) The compound of Example 106 was used as the test compound.
Cryopreserved mononuclear cells derived from human peripheral blood (LONZA K. K.) were thawed at 37° C., and human monocytes were isolated using CD14 Microfleads (Miltenyi Biotec). The isolated human monocytes were mixed with a culture medium (RPMI 1640, 10% FBS, penicillin, streptomycin), and a DMSO solution of a concentration of the test compound was added. The mixture was incubated at 37° C. for 30 minutes. After the incubation, lipopolysaccharide (LPS; Sigma Aldrich) was added so that the final concentration would be 100 ng/mL. The mixture was incubated at 37° C. for 4 hours. After the incubation, the supernatant was recovered and cryopreserved at −80° C. The cryopreserved supernatant was thawed and the amount of TNF-α production in the supernatant was measured using CBA Human TNF Flex Set (BD Bioscience).
Inhibitory ratio (%) was calculated by: % Inhibition={1−(amount of TNF-α production in sample−amount of TNF-α production without stimulus (DMSO added, not LPS-stimulated))/(amount of TNF-α production in control (DMSO added, LPS-stimulated)−amount of TNF-α production without stimulus (DMSO added, not LPS-stimulated))}×100. The inhibitory concentration IC50was calculated based on 4 data values obtained in the concentration response test.

Experiment [2] concerns TNF-α in serum of LPS-stimulated mice. The experiment is described as follows: TNF-α increase inhibition test in LPS-stimulated mouse serums. The format is in vivo, BALB/c mice. Conditions: 1 mg/kg oral, LPS intraperitoneal 30 minutes later, serum 1.5 hours later. The method, then: as §2
Six-week old male BALB/c mice were orally administered with a suspension (10 mL/kg) of a concentration of the test compound in 0.5% methylcellulose (MC) solution. 30 Minutes later, […] of LPS (Sigma Aldrich) was intraperitoneally administered. […] The amount of TNF-α production in the serum was measured using CBA […] TNF Flex Set (BD Bioscience).
The inhibitory ratio (%) was calculated by: % Inhibition={1−(amount of TNF-α production in sample−average amount of TNF-α production without stimulus (MC administered, not LPS-stimulated)/(average amount of TNF-α production in control (MC administered, LPS-stimulated)−average amount of TNF-α production without stimulus (MC administered, not LPS-stimulated))}×100. The results are described in Table 4 below.

Sequence of GST-tagged SIK2 (Q9H0K1 whole entry): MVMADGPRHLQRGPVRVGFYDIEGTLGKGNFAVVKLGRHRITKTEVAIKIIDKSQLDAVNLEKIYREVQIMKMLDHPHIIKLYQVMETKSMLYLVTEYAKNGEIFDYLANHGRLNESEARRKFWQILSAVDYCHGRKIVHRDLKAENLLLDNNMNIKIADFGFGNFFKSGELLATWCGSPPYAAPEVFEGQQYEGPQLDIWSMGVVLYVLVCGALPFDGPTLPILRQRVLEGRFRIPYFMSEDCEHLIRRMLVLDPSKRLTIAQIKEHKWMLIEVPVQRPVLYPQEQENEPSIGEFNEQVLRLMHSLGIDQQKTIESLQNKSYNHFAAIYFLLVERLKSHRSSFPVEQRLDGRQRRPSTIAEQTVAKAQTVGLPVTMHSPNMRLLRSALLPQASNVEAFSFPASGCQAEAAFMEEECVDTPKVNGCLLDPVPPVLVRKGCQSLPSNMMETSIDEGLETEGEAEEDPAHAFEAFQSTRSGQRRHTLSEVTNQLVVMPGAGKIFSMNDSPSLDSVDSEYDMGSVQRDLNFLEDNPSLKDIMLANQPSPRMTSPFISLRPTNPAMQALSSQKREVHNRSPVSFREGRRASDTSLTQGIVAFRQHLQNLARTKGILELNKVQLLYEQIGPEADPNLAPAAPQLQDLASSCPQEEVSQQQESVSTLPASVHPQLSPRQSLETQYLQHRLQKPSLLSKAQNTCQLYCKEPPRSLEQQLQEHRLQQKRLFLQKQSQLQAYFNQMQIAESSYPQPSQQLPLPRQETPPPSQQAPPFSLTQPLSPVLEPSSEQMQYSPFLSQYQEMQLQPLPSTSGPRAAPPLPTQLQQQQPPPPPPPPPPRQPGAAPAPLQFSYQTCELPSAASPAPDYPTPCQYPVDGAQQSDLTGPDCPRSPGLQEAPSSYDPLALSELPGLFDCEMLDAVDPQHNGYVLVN

In general, IC50 refers to the concentration needed to halve the response being measured. On to `CCCn1cc(-c2cc(C#N)c3c(-c4cc(OC)c5c(c4)[C@@H](C)CNC5=O)n(C)nc3c2)cn1` (single isomer, unassigned) [Example 106], for which the IC50 on GST-tagged SIK1 is 8 nM; on GST-tagged SIK2 it was 3.1 nM; against GST-tagged SIK3 it was 6.8 nM; in experiment [1], 19 nM. Moreover, the “TNF α increase inhibition ratio” value in experiment [2] is given as 47.2** %.
On to `COc1cc(-c2c3c(C#N)cc(-c4cnn(C[C@H](C)O)c4)cc3nn2C)cc(OC(F)F)c1C(=O)NC[C@@H]1CC1(F)F` (single isomer, unassigned) [Example 95, 4-[4-cyano-6-[1-[(2S)-2-hydroxypropyl]pyrazol-4-yl]-2-methylindazol-3-yl]-N-[[(1R*)-2,2-difluorocyclopropyl]methyl]-2-(difluoromethoxy)-6-methoxybenzamide], for which the concentration for half-maximal inhibition (IC50) stood at 16 nM against GST-tagged SIK1, 13.3 nM against GST-tagged SIK2 and 5.7 nM against GST-tagged SIK3.
`COc1cc(-c2c3c(C(F)F)cc(-c4cnn(CC(=O)N(C)C)c4)cc3nn2C)cc(OC(F)F)c1C(=O)N1CC(O)(C(F)F)C1` [Example 61, 2-[4-[3-[3-(difluoromethoxy)-4-[3-(difluoromethyl)-3-hydroxyazetidin-1-carbonyl]-5-methoxyphenyl]-4-(difluoromethyl)-2-methylindazol-6-yl]pyrazol-1-yl]-N,N-dimethylacetamide]: the IC50 against GST-tagged SIK1 was 4.7 nM; against GST-tagged SIK2, 7.4 nM; at GST-tagged SIK3 it was 7.4 nM.
For `COc1cc(-c2c3c(OCC(F)(F)F)cc(-c4cnn(C)c4)cc3nn2C)cc(OC(F)F)c1C(N)=O` [Example 157, 2-(difluoromethoxy)-6-methoxy-4-[2-methyl-6-(1-methylpyrazol-4-yl)-4-(2,2,2-trifluoroethoxy)indazol-3-yl]benzamide], the figures for the concentration for half-maximal inhibition (IC50) against GST-tagged SIK1, at GST-tagged SIK2 and against GST-tagged SIK3 were 5.1 nM, 1 nM and 7.9 nM, respectively.
As for `COc1cc(-c2c3c(OCc4ccncc4)cc(-c4cnn(C)c4)cc3nn2C)cc(OC(F)F)c1C(=O)N1CC(O)(C(F)(F)F)C1` [Example 35, [2-(difluoromethoxy)-6-methoxy-4-[2-methyl-6-(1-methylpyrazol-4-yl)-4-(pyridin-4-ylmethoxy)indazol-3-yl]phenyl]-[3-hydroxy-3-(trifluoromethyl)azetidin-1-yl]methanone], the IC50 at GST-tagged SIK1 was 1.9 nM; against GST-tagged SIK2 it was 3 nM; at GST-tagged SIK3 it was 12.9 nM.
The matching figures for `COc1cc(-c2c3c(C#N)cc(-c4cnn(C(C)C)c4)cc3nn2C)cc(OC(F)F)c1C(N)=O` [Example 132, 4-[4-cyano-2-methyl-6-(1-propan-2-ylpyrazol-4-yl)indazol-3-yl]-2-(difluoromethoxy)-6-methoxybenzamide]: 16.1 nM, 4 nM and 5.8 nM.
For the compound `CCn1cc(-c2cc(OC(F)F)c3c(-c4cc(OC)c(C(N)=O)c(OC(F)F)c4)n(C)nc3c2)cn1` [Example 155, 2-(difluoromethoxy)-4-[4-(difluoromethoxy)-6-(1-ethylpyrazol-4-yl)-2-methylindazol-3-yl]-6-methoxybenzamide], the IC50 at GST-tagged SIK1 worked out at 7.4 nM; at GST-tagged SIK2, 1.5 nM; at GST-tagged SIK3 it was 5.5 nM.
For `CCn1cc(-c2cc(C#N)c3c(-c4cc(OC)c5c(c4)C(C)(C)CNC5=O)n(C)nc3c2)cn1` [Example 139, 6-(1-ethylpyrazol-4-yl)-3-(8-methoxy-4,4-dimethyl-1-oxo-2,3-dihydroisoquinolin-6-yl)-2-methylindazole-4-carbonitrile], in that order: 9 nM, 8.6 nM and 12.8 nM.
The matching figures for `COc1cc(-c2c3c(C#N)cc(-c4cnn(CC[C@@H](C)O)c4)cc3nn2C)cc(OC(F)F)c1C(=O)NCC1(F)CC1` [Example 92, 4-[4-cyano-6-[1-[(3R)-3-hydroxybutyl]pyrazol-4-yl]-2-methylindazol-3-yl]-2-(difluoromethoxy)-N-[(1-fluorocyclopropyl)methyl]-6-methoxybenzamide]: 17 nM, 10.9 nM and 10.2 nM.
In the case of `COc1cc(-c2c3c(C#N)cc(-c4cnn(CC5(F)COC5)c4)cc3nn2C)cc(OC(F)F)c1C(=O)NCC1(F)CC1` [Example 76, 4-[4-cyano-6-[1-[(3-fluorooxetan-3-yl)methyl]pyrazol-4-yl]-2-methylindazol-3-yl]-2-(difluoromethoxy)-N-[(1-fluorocyclopropyl)methyl]-6-methoxybenzamide], the IC50 on GST-tagged SIK1 is 17.6 nM; against GST-tagged SIK2, 5.3 nM; at GST-tagged SIK3, 11.7 nM.
On to `COc1cc(-c2c3c(OCC(F)(F)F)cc(-c4cnn(C)c4)cc3nn2C)cc(OC(F)F)c1C(=O)N1CC(O)(C(F)(F)F)C1` [Example 30, [2-(difluoromethoxy)-6-methoxy-4-[2-methyl-6-(1-methylpyrazol-4-yl)-4-(2,2,2-trifluoroethoxy)indazol-3-yl]phenyl]-[3-hydroxy-3-(trifluoromethyl)azetidin-1-yl]methanone], for which the values for the IC50 at GST-tagged SIK1, against GST-tagged SIK2 and against GST-tagged SIK3 were 5.1 nM, 6.6 nM and 3.6 nM, respectively.
With `CCn1cc(-c2cc(C#N)c3c(-c4cc(OC)c(C(=O)N[C@@H]5CC5(F)F)c(OC(F)F)c4)n(C)nc3c2)cn1` [Example 118, 4-[4-cyano-6-(1-ethylpyrazol-4-yl)-2-methylindazol-3-yl]-N-[(1R)-2,2-difluorocyclopropyl]-2-(difluoromethoxy)-6-methoxybenzamide], the IC50 is 5.3 nM against GST-tagged SIK1, 1 nM against GST-tagged SIK2 and 0.6 nM against GST-tagged SIK3.
`COc1cc(-c2c3c(C#N)cc(-c4cnn(C[C@@H](C)O)c4)cc3nn2C)cc(OC(F)F)c1C(=O)N[C@@H]1CC1(F)F` [Example 153, 4-[4-cyano-6-[1-[(2R)-2-hydroxypropyl]pyrazol-4-yl]-2-methylindazol-3-yl]-N-[(1R)-2,2-difluorocyclopropyl]-2-(difluoromethoxy)-6-methoxybenzamide]: the IC50 against GST-tagged SIK1 was found to be 8.5 nM; at GST-tagged SIK2, 1.8 nM; against GST-tagged SIK3, 2.7 nM.
Take `COc1cc(-c2c3c(C#N)cc(-c4cnn(C)c4)cc3nn2C)cc(OC(F)F)c1C(=O)N1CC(O)(C(F)(F)F)C1` [Example 7, 3-[3-(difluoromethoxy)-4-[3-hydroxy-3-(trifluoromethyl)azetidin-1-carbonyl]-5-methoxyphenyl]-2-methyl-6-(1-methylpyrazol-4-yl)indazole-4-carbonitrile]: the half-maximal inhibitory concentration (IC50) at GST-tagged SIK1 amounted to 17.1 nM; at GST-tagged SIK2, 16.2 nM; at GST-tagged SIK3, 12.4 nM.
For `COc1cc(-c2c3c(C(F)F)cc(-c4cn[nH]c4)cc3nn2C)cc(OC(F)F)c1C(=O)N1CC(O)(C(F)F)C1` [Example 69, [2-(difluoromethoxy)-4-[4-(difluoromethyl)-2-methyl-6-(1H-pyrazol-4-yl)indazol-3-yl]-6-methoxyphenyl]-[3-(difluoromethyl)-3-hydroxyazetidin-1-yl]methanone], in that order: 8.3 nM, 10.9 nM and 2 nM.
As for `CCn1cc(-c2cc(C#N)c3c(-c4cc(OC(F)F)c5c(c4)[C@@H](C)CNC5=O)n(C)nc3c2)cn1` (single isomer, unassigned) [Example 174], the IC50 at GST-tagged SIK1 amounted to 8.6 nM; on GST-tagged SIK2, 2.3 nM; at GST-tagged SIK3, 2.6 nM.

(Values after patent US20260062387A1, “SALT-INDUCIBLE KINASE INHIBITOR COMPOUND AND PHARMACEUTICAL COMPOSITION INCLUDING THE SAME” (MITSUBISHI TANABE PHARMA CORPORATION, priority 2023, published 2026).)
